The values that follow come from ChEMBL document CHEMBL1201862, “PubChem BioAssay data set” (2004).

SMILES strings stand for the structures.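 Growth conditions: 96-well plates. Treatment: test compound, 48 hours, 5 concentrations. Analysis: linear interpolation between bracketing concentrations; unreached endpoints set to highest concentration. GI50 is the concentration that inhibits growth by half.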 Calls of active or inactive are those of the source. No stated cut-off is given here; in the data, active = GI50 up to about 1.1 µM and inactive = higher. Some results are limits rather than exact numbers.

Some test systems named below: UACC-62; SW-620; M14; SK-OV-3; U-251; HCT-116; KM12; SNB-19; CCRF-CEM; OVCAR-8; RPMI-8226; HOP-92; COLO 205; NCI-H23; Malme-3M; OVCAR-3; UACC-257; SF-539; NCI-H522; ACHN.
Common to all, as to experiment: NCI-60 cell line screen, 48 h

Consider `COC(=S)OC1CC(n2cnc3c(N)ncnc32)OC1CO[Si](C)(C)C(C)(C)C` (centres undefined), for which the GI50 in the test with UACC-62 was 10.6 µM (inactive); in the test on SW-620 it was 28.6 µM (inactive); in the test with M14, 16.4 µM (inactive); in the test with SK-OV-3, 24 µM (inactive); in the test with U-251, 14.3 µM (inactive); in the test with HCT-116, 16 µM (inactive). Besides, the GI50 was 23.7 µM (inactive) in the test on KM12; 33 µM (inactive) with SNB-19; 10.1 µM (inactive) in the test with CCRF-CEM; 24.3 µM (inactive) in the test on OVCAR-8; 19 µM (inactive) with RPMI-8226; 31 µM (inactive) in the test on HOP-92. Moreover, the GI50 in the test on COLO 205 is 17.7 µM (inactive); with NCI-H23 it was 14 µM (inactive); with Malme-3M it was 31.5 µM (inactive); in the test on OVCAR-3, 15.3 µM (inactive); in the test with UACC-257 it was 21.3 µM (inactive).

Take `C=C1C(=O)O[C@H]2[C@H]1[C@@H](OC(=O)C=C(C)C)CC1=C[C@@H](C[C@@]3(C)O[C@@H]23)OC1=O`: the GI50 with UACC-62 is 3.52 µM (inactive); in the test on SW-620, 1.43 µM (inactive); in the test with SK-OV-3 it was 20.9 µM (inactive); with U-251, 16.3 µM (inactive); with HCT-116 it was 3.4 µM (inactive); with KM12, 5.74 µM (inactive). In addition, the GI50 with SNB-19 was 22.3 µM (inactive); with CCRF-CEM, 0.859 µM (active); in the test with HOP-92 it was 2.1 µM (inactive); in the test on NCI-H23, 3.13 µM (inactive); with Malme-3M, 8.04 µM (inactive); in the test with SF-539, 2.24 µM (inactive). Also, the results for the GI50 in the test with OVCAR-3, with NCI-H522 and with UACC-257 were 1.59 µM (inactive), 1.16 µM (inactive) and 2.18 µM (inactive), respectively.

Turning to `Cc1ccc2oc3c(ccc(=O)n3C)c(=O)c2c1`, the GI50 in the test on UACC-62, with SW-620, in the test with M14, with SK-OV-3, with U-251 and with HCT-116 was > 100 µM (inactive) in each case. In addition, the GI50 in the test with KM12, with SNB-19, with CCRF-CEM, in the test on OVCAR-8, in the test with HOP-92 and in the test with COLO 205 was > 100 µM (inactive) each time. The GI50 with NCI-H23, in the test on Malme-3M, with SF-539, in the test on OVCAR-3, in the test with ACHN and in the test on NCI-H522 was > 100 µM (inactive) in each case.

Consider `O=C1OC(c2ccccc2)=N/C1=C\c1ccc(Oc2ccc(Cl)c(Cl)c2)cc1`, for which the GI50 was 26.2 µM (inactive) in the test on UACC-62; 37.7 µM (inactive) in the test on SW-620; 49.5 µM (inactive) with M14; 24.1 µM (inactive) with U-251; 33.2 µM (inactive) in the test with HCT-116; 50 µM (inactive) in the test on KM12. For the same compound, the GI50 in the test on SNB-19 is 35.5 µM (inactive); with CCRF-CEM, 23.1 µM (inactive); in the test with OVCAR-8, 21.2 µM (inactive); in the test with HOP-92, 55 µM (inactive); in the test with COLO 205, > 100 µM (inactive); in the test with NCI-H23 it was 35.4 µM (inactive). The GI50 was 26 µM (inactive) in the test with Malme-3M; 24.2 µM (inactive) with SF-539; 63.1 µM (inactive) in the test on ACHN; 30.1 µM (inactive) in the test on NCI-H522; > 100 µM (inactive) in the test on UACC-257.

As to `COC(=O)C1=C(C)N2CCOC2(C)C(C(=O)OC)C1c1ccc[nH]1` (centres undefined), the GI50 in the test with UACC-62, in the test with SW-620, in the test with M14, with HCT-116, in the test with KM12 and in the test on SNB-19 was > 100 µM (inactive) in each case. For the same compound, the GI50 in the test with CCRF-CEM, in the test on OVCAR-8, with RPMI-8226, with HOP-92, in the test with COLO 205 and with NCI-H23 was > 100 µM (inactive) each time. Moreover, the GI50 in the test on SF-539, in the test with OVCAR-3, in the test on ACHN and with UACC-257 was > 100 µM (inactive) throughout.

On to `O=c1cc(-c2cc(O)c(O)c(-c3c(O)cc4oc(-c5ccc(O)c(O)c5)cc(=O)c4c3O)c2)oc2cc(O)cc(O)c12`, for which the GI50 in the test on UACC-62 is > 25 µM (inactive); in the test with SW-620, > 25 µM (inactive); with M14 it was > 25 µM (inactive); in the test on SK-OV-3, > 25 µM (inactive); in the test on U-251, 19.2 µM (inactive); with HCT-116, 17.5 µM (inactive). Further, the GI50 in the test on CCRF-CEM, in the test on OVCAR-8, in the test with HOP-92, with COLO 205, with NCI-H23 and in the test on Malme-3M was > 25 µM (inactive) each time. In addition, the GI50 with SF-539, in the test with OVCAR-3 and in the test with UACC-257 was > 25 µM (inactive) in each case.

Take `Cc1cc(C)nc(NS(=O)(=O)c2ccc(Nc3c4ccccc4nc4c(C(=O)N5CCN(CCOS(C)(=O)=O)CC5)cccc34)cc2)n1`: the GI50 with UACC-62 was > 100 µM (inactive); with M14, > 100 µM (inactive); in the test on SK-OV-3, > 100 µM (inactive); in the test with U-251, 67 µM (inactive); with HCT-116 it was > 100 µM (inactive); in the test with KM12, > 100 µM (inactive). The GI50 is > 100 µM (inactive) with SNB-19; 72.9 µM (inactive) in the test on CCRF-CEM; > 100 µM (inactive) in the test with OVCAR-8; > 100 µM (inactive) in the test on RPMI-8226; > 100 µM (inactive) in the test on HOP-92; > 100 µM (inactive) in the test on COLO 205. Besides, the GI50 with NCI-H23 is > 100 µM (inactive); with Malme-3M it was > 100 µM (inactive); with SF-539 it was > 100 µM (inactive); in the test with OVCAR-3 it was 96.4 µM (inactive); in the test with ACHN, > 100 µM (inactive); in the test with UACC-257, > 100 µM (inactive).

Regarding `C=CCC(O[Si](C)(C)C(C)(C)C)c1cc(O[Si](C)(C)C(C)(C)C)ccc1OC` (centres undefined), the GI50 with UACC-62 was > 81.3 µM (inactive); with SW-620, > 100 µM (inactive); with SK-OV-3 it was > 62.4 µM (inactive); in the test with U-251 it was > 71.6 µM (inactive); in the test on HCT-116, > 80.7 µM (inactive); in the test with KM12 it was > 100 µM (inactive). The GI50 is > 62.2 µM (inactive) in the test with SNB-19; > 100 µM (inactive) with CCRF-CEM; > 81.3 µM (inactive) with OVCAR-8; > 100 µM (inactive) with RPMI-8226; 35.4 µM (inactive) in the test with HOP-92; > 83 µM (inactive) in the test with COLO 205. Moreover, the GI50 in the test with NCI-H23 was > 100 µM (inactive); in the test on Malme-3M, > 100 µM (inactive); with SF-539, 99.3 µM (inactive); in the test on OVCAR-3, > 54.6 µM (inactive); in the test on UACC-257 it was > 79.4 µM (inactive).

`COc1ccc(OC)c(SC(CC(=O)c2ccccc2)c2ccccc2)c1` (centres undefined): the GI50 in the test with UACC-62 is 15.6 µM (inactive); in the test with SW-620, 3.73 µM (inactive); in the test on M14 it was 16.7 µM (inactive); in the test on SK-OV-3, 20 µM (inactive); in the test with U-251 it was 10.2 µM (inactive); in the test on HCT-116, 3.66 µM (inactive). In addition, the GI50 in the test on KM12 is 4.06 µM (inactive); in the test with SNB-19, 14.2 µM (inactive); in the test on CCRF-CEM, 5.08 µM (inactive); in the test on OVCAR-8, 11.3 µM (inactive); in the test on HOP-92, 33.7 µM (inactive); in the test on COLO 205, 19.5 µM (inactive). The GI50 is 18.6 µM (inactive) in the test on NCI-H23; 19.8 µM (inactive) with Malme-3M; 4.32 µM (inactive) in the test with SF-539; 4.69 µM (inactive) in the test on OVCAR-3; 19.6 µM (inactive) in the test with ACHN; 14.6 µM (inactive) with NCI-H522. Also, the GI50 in the test with UACC-257 is 15.9 µM (inactive).

Regarding `COC(=O)[C@@H]1C=C[C@H](NC(C)=O)C1`, the GI50 in the test with UACC-62, in the test on SW-620, in the test on M14, in the test with SK-OV-3, with U-251 and in the test on HCT-116 was > 100 µM (inactive) each time. Besides, the GI50 in the test with KM12, with SNB-19, with CCRF-CEM, with OVCAR-8, in the test on RPMI-8226 and in the test on HOP-92 was > 100 µM (inactive) throughout. In addition, the GI50 in the test on COLO 205, with NCI-H23, with Malme-3M, in the test on OVCAR-3 and with UACC-257 was > 100 µM (inactive) in each case.

As to `CN1CCN(c2cc(-c3cc4ccccc4o3)oc(=O)c2C#N)CC1`, the GI50 was > 100 µM (inactive) in the test with SW-620; > 100 µM (inactive) in the test on M14; > 100 µM (inactive) in the test with U-251; 77.1 µM (inactive) with HCT-116; 99.3 µM (inactive) with KM12; > 100 µM (inactive) in the test on SNB-19. In addition, the GI50 in the test on CCRF-CEM was 71.4 µM (inactive); with OVCAR-8, 57.7 µM (inactive); with RPMI-8226, 75.5 µM (inactive); in the test on COLO 205 it was 66.5 µM (inactive); with NCI-H23 it was > 100 µM (inactive); with Malme-3M, > 100 µM (inactive). Further, the results for the GI50 with SF-539, in the test on ACHN and with UACC-257 were 98.4 µM (inactive), 59 µM (inactive) and > 100 µM (inactive), respectively.
